Results reported in patent US5840684A, “Glycopeptide antibiotic derivatives” (Eli Lilly and Company, priority 1995, dated 1998).
Converted amounts (≈) assume the structure as drawn.

Experiments:
[1] = tested on: Staphylococcus aureus S13E; type: cell-based
Description: (§1) The MIC's were determined using a standard broth micro-dilution assay.

[2] = tested on: Staphylococcus aureus SA1199B; type: cell-based
Description: as §1

[3] = tested on: Entercoccus faecium 180-1; assay: broth micro-dilution MIC; type: cell-based
Description: as §1

Entercoccus faecium 276 = assay: broth micro-dilution MIC; type: cell-based
Description: as §1

[4] = tested on: Staphylococcus aureus 446; assay: broth micro-dilution MIC; type: cell-based
Description: as §1

[5] = tested on: Staphylococcus aureus 447; assay: broth micro-dilution MIC; type: cell-based
Description: as §1

[6] = tested on: Staphylococcus aureus 489; assay: broth micro-dilution MIC; type: cell-based
Description: as §1

[7] = tested on: Staphylococcus aureus 491; assay: broth micro-dilution MIC; type: cell-based
Description: as §1

[8] = tested on: Staphylococcus aureus SA1199A; assay: broth micro-dilution MIC; type: cell-based
Description: as §1

[9] = tested on: Staphylococcus aureus SA1199; assay: broth micro-dilution MIC; type: cell-based
Description: as §1

[10] = tested on: Staphylococcus aureus X400; assay: broth micro-dilution MIC; type: cell-based
Description: as §1

[11] = tested on: Streptococcus pyogenes C203; assay: broth micro-dilution MIC; type: cell-based
Description: as §1

Entercoccus faecium 180 = assay: broth micro-dilution MIC; type: cell-based; details: Entercoccus faecium 180
Description: (§2) The formula I compounds have in vitro and in vivo activity against Gram-positive pathogenic bacteria. The MIC's were determined using a standard broth micro-dilution assay.

[12] = tested on: Enterococcus gallinarum 245; assay: broth micro-dilution MIC; type: cell-based; details: Enterococcus gallinarum 245
Description: as §2

[13] = tested on: Staphylococcus epidermidis 270; assay: broth micro-dilution MIC; type: cell-based
Description: as §2

[14] = tested on: Staphylococcus haemolyticus 105; assay: broth micro-dilution MIC; type: cell-based
Description: as §2

[15] = tested on: Streptococcus pneumoniae P1; assay: broth micro-dilution MIC; type: cell-based
Description: as §2

[16] = tested on: vancomycin-resistant enterococci; assay: broth micro-dilution, mean geometric MIC; type: cell-based, Enterococcus faecium and Enterococcus faecalis; details: enterococci, 24-hour incubation
[17] = tested on: vancomycin-susceptible enterococci; assay: broth micro-dilution, mean geometric MIC; type: cell-based, Enterococcus faecium and Enterococcus faecalis; details: enterococci, 24-hour incubation
[18] = tested on: Staphylococcus aureus X778; assay: broth micro-dilution MIC; type: cell-based
Description: as §1

[19] = tested on: Staphylococcus haemolyticus 415; assay: broth micro-dilution MIC; type: cell-based
Description: as §2

Entercoccus faecium 2041 = assay: broth micro-dilution MIC; type: cell-based; details: Entercoccus faecium 2041
Description: as §2

Structure (SMILES) | MIC [1] [µg/mL] | MIC [2] [µg/mL] | MIC [3] [µg/mL] | MIC (Entercoccus faecium 276) [µg/mL] | MIC [4] [µg/mL] | MIC [5] [µg/mL] | MIC [6] [µg/mL] | MIC [7] [µg/mL] | MIC [8] [µg/mL] | MIC [9] [µg/mL] | MIC [10] [µg/mL] | MIC [11] [µg/mL] | MIC (Entercoccus faecium 180) [µg/mL] | MIC [12] [µg/mL] | MIC [13] [µg/mL] | MIC [14] [µg/mL] | MIC [15] [µg/mL] | mean geometric MIC, Vancomycin Resistant Strains [16] [µg/mL] | mean geometric MIC, Vancomycin Sensitive Strains [17] [µg/mL] | MIC [19] [µg/mL] | further results
C=CCOc1ccc(CNC2(C)CC(OC3C(Oc4c5cc6cc4Oc4ccc(cc4Cl)C(OC4CC(C)(N)C(O)C(C)O4)C4NC(=O)C(NC(=O)C6NC(=O)C(CC(N)=O)NC(=O)C(NC(=O)C(CC(C)C)NC)C(O)c6ccc(c(Cl)c6)O5)c5ccc(O)c(c5)-c5c(O)cc(O)cc5C(C(=O)O)NC4=O)OC(CO)C(O)C3O)OC(C)C2O)cc1 (stereo not drawn) [Compound 7] | 2 (≈ 1.15 µM) | 1 (≈ 0.575 µM) | ≤ 0.06 | 1 (≈ 0.575 µM) | 8 (≈ 4.6 µM) | 4 (≈ 2.3 µM) | 2 (≈ 1.15 µM) | 2 (≈ 1.15 µM) | ≤ 0.06 | 4 (≈ 2.3 µM) | 1 (≈ 0.575 µM) | ≤ 0.06 | 2 (≈ 1.15 µM) | 0.5 (≈ 0.288 µM) | 4 (≈ 2.3 µM) | 8 (≈ 4.6 µM) | ≤ 0.06 | 2.8 | 0.43 | – | –
CNC(CC(C)C)C(=O)NC1C(=O)NC(CC(N)=O)C(=O)NC2C(=O)NC3C(=O)NC(C(=O)NC(C(=O)O)c4cc(O)cc(O)c4-c4cc3ccc4O)C(OC3CC(C)(N)C(O)C(C)O3)c3ccc(c(Cl)c3)Oc3cc2cc(c3OC2OC(CO)C(O)C(O)C2OC2CC(C)(NCc3ccncc3)C(O)C(C)O2)Oc2ccc(cc2Cl)C1O (stereo not drawn) [Compound 26] | – | 0.5 (≈ 0.297 µM) | – | ≤ 0.06 | – | 2 (≈ 1.19 µM) | ≤ 0.06 | 0.5 (≈ 0.297 µM) | ≤ 0.06 | 1 (≈ 0.594 µM) | – | ≤ 0.06 | 4 (≈ 2.38 µM) | 0.125 (≈ 0.0742 µM) | 1 (≈ 0.594 µM) | 4 (≈ 2.38 µM) | ≤ 0.06 | 54 | – | 8 (≈ 4.75 µM) | MIC [18]: 0.125 µg/mL (≈ 0.0742 µM)
CNC(CC(C)C)C(=O)NC1C(=O)NC(CC(N)=O)C(=O)NC2C(=O)NC3C(=O)NC(C(=O)NC(C(=O)O)c4cc(O)cc(O)c4-c4cc3ccc4O)C(OC3CC(C)(N)C(O)C(C)O3)c3ccc(c(Cl)c3)Oc3cc2cc(c3OC2OC(CO)C(O)C(O)C2OC2CC(C)(NCc3ccc(-c4ccccc4)s3)C(O)C(C)O2)Oc2ccc(cc2Cl)C1O (stereo not drawn) [Compound 67] | – | 1 (≈ 0.567 µM) | ≤ 0.06 | ≤ 0.06 | – | 1 (≈ 0.567 µM) | ≤ 0.06 | 1 (≈ 0.567 µM) | ≤ 0.06 | 1 (≈ 0.567 µM) | 1 (≈ 0.567 µM) | – | – | 2 (≈ 1.13 µM) | 0.5 (≈ 0.283 µM) | – | ≤ 0.06 | 1.7 | 0.16 | 2 (≈ 1.13 µM) | MIC (Entercoccus faecium 2041): ≤ 0.06 µg/mL
CNC(CC(C)C)C(=O)NC1C(=O)NC(CC(N)=O)C(=O)NC2C(=O)NC3C(=O)NC(C(=O)NC(C(=O)O)c4cc(O)cc(O)c4-c4cc3ccc4O)C(OC3CC(C)(N)C(O)C(C)O3)c3ccc(c(Cl)c3)Oc3cc2cc(c3OC2OC(CO)C(O)C(O)C2OC2CC(C)(NCc3ccc(OC(=O)C4CCCCC4)cc3)C(O)C(C)O2)Oc2ccc(cc2Cl)C1O (stereo not drawn) [Compound 157] | – | 1 (≈ 0.553 µM) | ≤ 0.06 | ≤ 0.06 | 0.5 (≈ 0.276 µM) | – | 0.5 (≈ 0.276 µM) | ≤ 0.06 | ≤ 0.06 | 1 (≈ 0.553 µM) | 0.5 (≈ 0.276 µM) | ≤ 0.06 | ≤ 0.06 | 1 (≈ 0.553 µM) | – | 1 (≈ 0.553 µM) | ≤ 0.06 | 2.0 | 0.054 | 1 (≈ 0.553 µM) | MIC (Entercoccus faecium 2041): ≤ 0.06 µg/mL
CNC(CC(C)C)C(=O)NC1C(=O)NC(CC(N)=O)C(=O)NC2C(=O)NC3C(=O)NC(C(=O)NC(C(=O)O)c4cc(O)cc(O)c4-c4cc3ccc4O)C(OC3CC(C)(N)C(O)C(C)O3)c3ccc(cc3)Oc3cc2cc(c3OC2OC(CO)C(O)C(O)C2OC2CC(C)(NCc3ccc(-c4ccccc4)cc3)C(O)C(C)O2)Oc2ccc(cc2Cl)C1O (stereo not drawn) [Compound 182] | – | 4 (≈ 2.32 µM) | ≤ 0.06 | 1 (≈ 0.58 µM) | 2 (≈ 1.16 µM) | – | 2 (≈ 1.16 µM) | 1 (≈ 0.58 µM) | ≤ 0.06 | 2 (≈ 1.16 µM) | 1 (≈ 0.58 µM) | ≤ 0.06 | 2 (≈ 1.16 µM) | 1 (≈ 0.58 µM) | – | 2 (≈ 1.16 µM) | ≤ 0.06 | 13 | – | 4 (≈ 2.32 µM) | MIC [18]: 2 µg/mL (≈ 1.16 µM); MIC (Entercoccus faecium 2041): 1 µg/mL (≈ 0.58 µM)
CNC(CC(C)C)C(=O)NC1C(=O)NC(CC(N)=O)C(=O)NC2C(=O)NC3C(=O)NC(C(=O)NC(C(=O)O)c4cc(O)cc(O)c4-c4cc3ccc4O)C(OC3CC(C)(N)C(O)C(C)O3)c3ccc(c(Cl)c3)Oc3cc2cc(c3OC2OC(CO)C(O)C(O)C2OC2CC(C)(NCc3ccc(-c4ccc(C(F)(F)F)cc4)cc3)C(O)C(C)O2)Oc2ccc(cc2Cl)C1O (stereo not drawn) [Compound 216] | 1 (≈ 0.547 µM) | 0.5 (≈ 0.274 µM) | ≤ 0.06 | 0.5 (≈ 0.274 µM) | 1 (≈ 0.547 µM) | 1 (≈ 0.547 µM) | 1 (≈ 0.547 µM) | 1 (≈ 0.547 µM) | 1 (≈ 0.547 µM) | ≤ 0.06 | 1 (≈ 0.547 µM) | ≤ 0.06 | ≤ 0.06 | – | – | 0.5 (≈ 0.274 µM) | ≤ 0.06 | 0.35 | 0.032 | – | –
CNC(CC(C)C)C(=O)NC1C(=O)NC(CC(N)=O)C(=O)NC2C(=O)NC3C(=O)NC(C(=O)NC(C(=O)O)c4cc(O)cc(O)c4-c4cc3ccc4O)C(OC3CC(C)(N)C(O)C(C)O3)c3ccc(c(Cl)c3)Oc3cc2cc(c3OC2OC(CO)C(O)C(O)C2OC2CC(C)(NCc3ccc(-c4cccs4)cc3)C(O)C(C)O2)Oc2ccc(cc2Cl)C1O (stereo not drawn) [Compound 218] | 32 (≈ 18.1 µM) | – | ≤ 0.06 | ≤ 0.06 | 4 (≈ 2.27 µM) | 1 (≈ 0.567 µM) | 1 (≈ 0.567 µM) | 0.5 (≈ 0.283 µM) | ≤ 0.06 | 4 (≈ 2.27 µM) | – | ≤ 0.06 | ≤ 0.06 | ≤ 0.06 | 1 (≈ 0.567 µM) | 0.5 (≈ 0.283 µM) | ≤ 0.06 | 1.0 | 0.11 | 4 (≈ 2.27 µM) | MIC [18]: 1 µg/mL (≈ 0.567 µM)
